The conditions of data set [1]: background statement, no test described; cited from earlier work.
Data set [2] has as its target T1, histamine; longitudinal muscle from the intact ileum of guinea-pigs (Cavia porcellus, UniProt P31389).
T1 construct: The longitudinal muscle was isolated from the intact ileum of guinea-pigs; from tissue; host or cells: longitudinal muscle of the ileum of guinea-pigs (Harley, male 250-400 g)
Description: In vitro antihistaminic activity: histamine concentration-response curves, isolated guinea-pig ileum longitudinal muscle (Schild plot). It is filed as cell-based. As to conditions: negative log of the concentration of antagonist which shifts the control histamine concentration-response curve 2X to the right, one hour incubation with test compound, 60 min. The protocol: A.Invitro antihistaminic activity: The longitudinal muscle was isolated from the intact ileum of guinea-pigs (Harley, male 250-400 g) and placed in an organ bath under 300 mg tension. After one hour of equilibration, cumulative concentration-response curves (Van Rossum, J. M., Arch. Int. Pharmacodyn. Ther. 143 299-330, 1963) to histamine wee obtained. Following washing, the tissues were incubated for one hour with the test compound and then a second histamine concentration-response curve was run. Shifts to the right of the agonist concentration-response curve produced by the antagonists were used to construct Schild plots (Arunlakshana, O. and Schild, H. O., Br. J. Pharmacol: 14, 48-58, 1959). Regression of Log (dr-1) on Log/B/, where dr is an equiactive response in the presence and absence of antagonist and /B/ is the molar concentration of antagonist, allowed an estimate of pA2, i.e. the negative log of the concentration of antagonist which shifts the control histamine concentration-response curve 2X to the right.
The antihistaminic activities of compounds of the present invention are detailed in table A below.

For data set [3] the following is noted: cited from earlier work.
The conditions of data set [4]: cited from earlier work. This is another data set of the same source.

Where two headings read alike, the source gives them in different places.

T1 sequence (P31389 whole entry): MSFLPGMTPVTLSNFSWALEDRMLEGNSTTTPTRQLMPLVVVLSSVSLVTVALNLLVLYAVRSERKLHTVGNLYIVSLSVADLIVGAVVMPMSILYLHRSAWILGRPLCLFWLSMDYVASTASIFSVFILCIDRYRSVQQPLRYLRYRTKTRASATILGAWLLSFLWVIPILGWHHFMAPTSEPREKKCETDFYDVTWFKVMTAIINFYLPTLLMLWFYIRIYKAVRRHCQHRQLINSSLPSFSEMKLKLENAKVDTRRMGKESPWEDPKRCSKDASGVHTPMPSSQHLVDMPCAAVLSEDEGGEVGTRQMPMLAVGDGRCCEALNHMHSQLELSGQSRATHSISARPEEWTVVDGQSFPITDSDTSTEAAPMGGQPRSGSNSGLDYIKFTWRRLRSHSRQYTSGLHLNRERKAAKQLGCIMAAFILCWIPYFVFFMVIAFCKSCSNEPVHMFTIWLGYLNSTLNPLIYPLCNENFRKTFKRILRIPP

For `O=C(O)c1ccc(/C(=C\CN2CCCC2)c2ccccn2)cc1` [(E)-1-(4-carboxyphenyl)-1-(2-pyridyl)-3-pyrrolidinoprop-1-ene], the antihistamine activity result in data set [1] was “little or no antihistamine activity”.
Broadly, the pA2 is the negative logarithm of the molar antagonist concentration that doubles the agonist concentration needed for the same response. Turning to `Cc1ccc(/C(=C\CN2CCCC2)c2cccc(/C=C/c3nnn[nH]3)n2)cc1` [Example 1, 5-(E-6-[3-Pyrrolidino-1-(4-tolyl)prop-1E-enyl]-2-pyridylvinyl)-1H-tetrazole], the pA2 in data set [2] was 8.7.
As for `O=S(=O)(O)c1cccc(/C(=C/CN2CCCC2)c2ccccc2)c1` [Example 2, (E)-3-(1-phenyl-3-pyrrolidinoprop-1-enyl)-benzenesulphonic Acid], the pA2 in data set [2] is on record as 7.1.
The same measure, in the same setting: then `O=S(=O)(O)c1cccc(C(CCN2CCCC2)c2ccccc2)c1` (stereo not drawn) [Example 3, 3-(1-phenyl-3-pyrrolidinopropyl)benzenesulphonic acid], with 7.3.
`CC(CN1c2ccccc2Sc2ccccc21)N(C)C` (stereo not drawn) [promethazine]: in data set [3] (in some patients), the sedation or drowsiness result is “cause sedation or drowsiness in some patients”.
On to `COc1ccc(CN(CCN(C)C)c2ccccn2)cc1` [pyrilamine], for which the sedation or drowsiness result in data set [3] (human, in vivo) is on record as “cause sedation or drowsiness in some patients”.
On to `Cc1ccc(/C(=C\CN2CCCC2)c2ccccn2)cc1` [triprolidine, (E)-1-(4-methylphenyl)-1-(2-pyridyl)-3-pyrrolidinoprop-1-ene], for which the sedation or drowsiness result in data set [3] (human, in vivo) is given as “cause sedation or drowsiness in some patients”. For the same compound, in data set [1], the antihistamine activity result was “one of the most potent antihistamines available”. In data set [4], the metabolism in man entry is given as “metabolized in man to (E)-1-(4-carboxyphenyl)-1-(2-pyridyl)-3-pyrrolidinoprop-1-ene”.

The values are drawn from patent US4690933A, “Pyridylvinyl-1H tetrazole having antihistamine activity” (priority 1984, dated 1987).
